Structures can show the parent of a compound that is named as a salt. Where two headings read alike, the source gives them in different places.
What was measured:
[1] = In vitro dissolution rate test in phosphate buffer (1000 ml, 50 turns per minute, HPLC); assay type: physicochemical
[2] = cited from earlier work
[3] = In vitro dissolution rate test in phosphate buffer (1000 ml, 50 turns per minute, HPLC); assay type: physicochemical; parameters: unit not given here
Experimental: PVP was used as the carrier material. The solid dispersion is prepared by solvent method (drug:carrier=1:10), and the method to evaluate solubility in vitro is given as follows:
Using this method, 5 ml of the solution was taken at 5 min, 10 min, 15 min, 20 min, 30 min, 45 min, and 60 min (5 ml dissolution medium was supplemented after the 5 ml solution was taken out) and filtered. The filtrate was taken as the test solution and checked for purity using HPLC.
(2) A solid dispersion which contains the drug substance 5 mg, according to the method of dissolution rate test and 1000 ml at pH 6.8 phosphate buffer was used as dissolution medium, with a rotating speed of 50 turns per minute. Using this method, 5 ml of the solution was taken at 5 min, 10 min, 15 min, 20 min, 30 min, 45 min, and 60 min (5 ml dissolution medium was supplemented after the 5 ml solution was taken out) and filtered. The filtrate was taken as the test solution and checked for purity using HPLC.
The dissolution rate of examples 1-11 were evaluated by the evaluation system mentioned above.
The dissolution rate was evaluated in pH 4.5 phosphate buffer:
The dissolution rate was evaluated in pH6.8 phosphate buffer: […]

[4] = drugs administrated alone; cited from earlier work

dissolution rate after micronization only ([1]; pH4.5 and pH6.8, compared to prasugrel hydrochloride prepared by only micronization)	dissolution rate ([3]; pH 4.5 phosphate buffer, 0 min)	dissolution rate ([3]; pH 4.5 phosphate buffer, 5 min)	dissolution rate ([3]; pH 4.5 phosphate buffer, 10 min)	dissolution rate ([3]; pH 4.5 phosphate buffer, 15 min)	dissolution rate ([3]; pH 4.5 phosphate buffer, 20 min)	dissolution rate ([3]; pH 4.5 phosphate buffer, 30 min)	dissolution rate ([3]; pH 6.8 phosphate buffer, 0 min)	dissolution rate ([3]; pH 6.8 phosphate buffer, 5 min)	dissolution rate ([3]; pH 6.8 phosphate buffer, 15 min)	dissolution rate ([3]; pH 6.8 phosphate buffer, 30 min)	dissolution rate ([3]; pH 6.8 phosphate buffer, 45 min)	dissolution rate ([3]; pH 6.8 phosphate buffer, 60 min)	SMILES	solubility after micronization only ([1]; pH 6.8, compared to prasugrel hydrochloride)	solubility ([2]; pH 1-4)	solubility ([2]; pH 5)	solubility ([2]; pH 6-7)	bioavailability, hydrochloride vs free base form [4]
improved, but there is still a gap													CC(=O)Oc1cc2c(s1)CCN(C(C(=O)C1CC1)c1ccccc1F)C2 (stereo not drawn) [prasugrel, 5-(2-cyclopropyl-1-(2-fluorophenyl)-2-oxoethyl)-4,5,6,7-tetrahydrothieno[3,2-c]pyridin-2-yl acetate]	poorer than that of prasugrel hydrochloride				
	0	16.71	26.66	32.45	36.78	43.42	0	13.69	21.03	23.99	25.13	25.62	CC(=O)Oc1cc2c(s1)CCN(C(C(=O)C1CC1)c1ccccc1F)C2 (stereo not drawn) [Prasugrel hydrochloride, prasugrel hydrochloride]		slightly soluble	very slightly soluble	insoluble	about equal

— US9050328B2 (Jiangsu Hansoh Pharmaceutical Group Co., Ltd., priority 2010, dated 2015)
